# Patent publication US20170189366A1, “METHOD FOR TREATING DISORDERS RELATED TO COMPLEMENT ACTIVATION” (CASE WESTERN RESERVE UNIVERSITY, priority 2006, published 2017)
# Assays:
# [1] = system: laser-induced choroidal neovascularization; assay: Murine laser-induced CNV model; format: in vivo, mouse; conditions: i.p. injection
# From the text: FIGS. 2A-B are a series of flat mounts showing the effects on lesion size of the amidine compound in a laser-induced CNV mouse model.
# As part of our exploration of different strategies for inhibiting complement activation intraocularly so as to arrive at what methodology could be most efficacious for treating AMD patients clinically, we utilized the standard murine CNV model and analyzed the effect of an i.p. injection of FUT-175. As shown diagrammatically in FIGS. 2A-B, the drug reduced lesion size by >80%.
# [2] = system: C3b activation on RPE-43 cell line; assay: Alternative pathway-dependent amplification of complement activation on C3b-seeded RPE-43 cell line; format: cell-based; conditions: after addition of C3, factor B, factor D, factor H, read-out: inhibition of further C3b activation
# From the text: FIGS. 1A-C are a series of graphs showing the ability of an amidine compound according to the present invention to inhibit alternative pathway-dependent amplification of C3 cleavage. In FIG. 1A, factor B, factor D, and C3 were mixed in the absence or presence of increasing concentrations of the amidine compound and generation of C3a was quantified by ELISA. In FIG. 1B, factor B, factor D, C3, and a limiting amount of factor H were mixed in the absence or presence of two doses of the amidine compound following initial deposition of C3b on Bruch's membrane via anti-CEP initiated classical pathway activation. In FIG. 1C, factor B, factor D, C3, and a limiting amount of factor H were mixed in the absence or presence of two doses of the amidine compound following initial deposition of C3b on the RPE-43 cell line by anti-class I monomorphic antibody; and To determine how effective FUT-175 is in preventing alternative pathway-dependent amplification of complement activation on Bruch's membrane and RPE cells, we seeded purified Bruch's membrane from an AMD patient and the RPE-43 cell line with C3b (as would occur with anti-CEP autoantibodies) by sensitization with anti-CEP and anti-HLA monomorphic monoclonal antibodies, respectively, followed by incubation with purified C1, C4, C2, and decay of C1 and C2. […]
structure (smiles),measurement,setting,value
"N=C(N)Nc1ccc(C(=O)Oc2ccc3cc(C(=N)N)ccc3c2)cc1 [FUT-175, 6-amidino-2-napthyl-4-guanidinobenzoate dimethanesulfonate]",reduction of lesion size,[1],> 80%
same,inhibition at 0.3 µM,[2],~50%
